The assay has as its system synaptophysin (SYP). The assay is described as follows: Synaptophysin (SYP) protein and puncta in the penumbra after MCAo (immunofluorescence, Western blot). It counts as in vivo, mouse. As to conditions: MCAo mice. The text has this: FIGS. 14A-14D: Inhibition of let-7i enhances progesterone (P4)'s effect on the expression of synaptophysin in the penumbra. (FIG. 14A) Representative confocal images of penumbra region staining for synaptophysin (SYP, red) and DAPI (blue). (60×, Scale bars=30 μm). (FIG. 14B) Quantification of average relative SYP puncta presents in each field (n=3 per group). n.s: not significant and ***P<0.001 compared to sham, ### P<0.001 and ##P<0.01 compared to P4+scrambled. (FIG. 14C) Representative immunoblots probed for SYP protein. (FIG. 14D) Quantification graph of Syp signal, expressed as a ratio to Gapdh (n=4-5 per group). n.s: not significant, ***P<0.001 and **P<0.01 compared to sham, ## P<0.01 and #P<0.05 compared to P4+scrambled.
Primary cortical astrocytes and mouse brains were lysed with RIPA lysis buffer containing protease and phosphatase inhibitors, as previously described (44). […] Total protein concentrations were determined using the Bio-Rad DC protein assay kit (Bio-Rad Laboratories). […]
Mouse brains were fixed in 4% PFA overnight at 4° C. and subsequently cryoprotected in 30% sucrose solution. […] After immunostaining, sections were mounted onto microscope slides with Vectashield mounting medium (Vector Laboratories) and observed under a confocal fluorescence microscope (FV1200, Olympus) with a […] objective. […]

The source of these data is patent US11230711B2, “Inhibition of LET7I as a means to enhance the protective effect of progesterone against stroke” (UNIVERSITY OF NORTH TEXAS HEALTH SCIENCE CENTER, priority 2017, dated 2022).

Molecules are shown by their SMILES.

For `CC(=O)[C@H]1CC[C@H]2[C@@H]3CCC4=CC(=O)CC[C@]4(C)[C@H]3CC[C@]12C` [P4, progesterone], the “SYP total protein expression in the penumbra” value (day 7 and day 14, FIG. 14D) is reported as “delayed, but sustained, restoration”. For the same molecule, the “number of SYP puncta in the penumbra” value (day 14, FIG. 14B) is recorded as “positive effect”.
